Results reported in paper PMC8148468, “Shikimic acid protects skin cells from UV-induced senescence through activation of the NAD+-dependent deacetylase SIRT1” (Aging (Albany NY), 2021).

Columns and labels:
Type in all cases: cell-based, human
UVB-irradiated HDF cells = test: Apoptosis detection, Annexin V-FITC/PI flow cytometry; conditions: UVB-irradiated cells exposed to SA 10, 25, 50 mM
Experimental: (§1) Figure 4 (A) SRB and Trypan blue cell viability assays performed in cells treated with or without Shikimic acid (5, 10, 25 and 50 mM) for 24h. (B) Apoptosis detection using the Annexin V-FITC/PI double staining followed by flow cytometry in non-irradiated and non-treated cells, irradiated and non-treated cells and irradiated cells treated with Shikimic acid (10, 25 and 50 mM). (C) Representation and statistical analysis of the percentage of apoptotic cells in each of the conditions analyzed. (D) Cell cycle analysis using PI staining followed by flow cytometry. (E) Relative p16^INK4a mRNA levels monitored by qPCR in the indicated conditions. Student T-test, *p<0.05. (F) Immunofluorescence of γH2AX in non-irradiated and non-treated cells, irradiated and non-treated cells and irradiated cells treated with Shikimic acid (10, 25 and 50 mM). […]
Fluorescence-activated cell sorting (FACS) analyses of the cell cycle and apoptosis were carried out using, respectively, a Propidium Iodide Flow Cytometry Kit (Abcam, UK), and an Annexin V-FITC Apoptosis Staining/Detection Kit (Abcam, UK), following the manufacturer’s instructions. […]

[1] = system: H4K16ac (the target of SIRT1 and SIRT2); test: Sirtuin activity assay in HDF: H4K16ac levels (Western blot); conditions: HDF treated 24h;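 note: screen looked for decreased acetylation as a sign of sirtuin activation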
Experimental: Figure 1 (A) Schematic representation of the compound testing for sirtuin activity evaluation in HDF. Cells were treated with or without the compounds for 24h and harvested for analysis. […] (C) Western Blot analysis and (D) quantification of H4K16ac and H3K9ac levels in cells treated with Resveratrol or Shikimic acid at the indicated concentrations. H4K16 and H3K9 levels were normalized to H4 and H3 levels respectively. Student T-test, *p<0.05, **p<0.01, ***p<0.001.
HDFs were plated in 100x20 mm2 cell culture plates and after 24h, fresh cell culture medium containing the compounds was added. After 24h, cells were detached with cell scrapers, harvested, and processed for qPCR or western blot.
Protein levels were analyzed as previously described. Cells were directly lysed in 1x Laemmli Buffer (Bio-Rad, USA), incubated at 95° C and centrifuged. Supernatant was subjected to SDS-polyacrylamide gel electrophoresis, and successive steps were performed as described. The list of antibodies used is included in Supplementary Table 2.

[2] = system: H3K9ac (the target of SIRT1, SIRT2 and SIRT6); test: Sirtuin activity assay in HDF: H3K9ac levels (Western blot); conditions: UV conditions, -/+25mM SA -/+1μM EX-527
γH2AX = γH2AX immunofluorescence assay; conditions: UVB irradiation, SA 10, 25, 50 mM
Experimental: as §1
The staining and detection of γH2AX foci by immunofluorescence was performed as previously described. Slides were analyzed by confocal microscopy using a Confocal Leica SP5 microscope (Leica Microsystems) with a 63x objective.

O=C(O)C1=C[C@@H](O)[C@@H](O)[C@H](O)C1 [Shikimic acid]
early apoptosis (annexin V, text) (UVB-irradiated HDF cells): very mild and mostly insignificant levels of early apoptosis
effect on H4K16ac levels [1]: induced a similar effect on both targets
H3K9ac/H3 levels under UV-induced senescence [2]: induced increased deacetylation of H3K9ac and H4K16ac
accumulation of DNA damage (γH2AX) (γH2AX): did not alter the accumulation of DNA damage
